The values that follow come from patent US8457712B2, “Multi-mode medical device system and methods of manufacturing and using same” (Wisconsin Alumni Research Foundation, priority 2005, dated 2013).

The nature of this data set: Diffusion of a fluorescent probe in swollen gelatin gel by FRAP. It is filed as physicochemical. From the text:
To assess the stability of DTPA[Gd(III)] in the gelatin coating, the diffusion of a fluorescence probe in gelatin was studied by the technique of fluorescence recovery after photobleaching (FRAP). The instrument and data analysis scheme are described in Kim, S. H. and Yu, H., J. Phys. Chem. 1992, 96, 4034, which is hereby fully incorporated by reference. Fluorescein was used as the fluorescence probe due, in part, to its molecular size being roughly the same as that of DTPA[Gd(III)]. The focus of the study was to examine the possible retardation effects of gelatin concentration and cross-link density on the diffusion, which was determined at room temperature, i.e., below the gel point of gelatin. The diffusion of fluorescein probe slows down with the increase of gelatin concentration. The diffusion coefficient decreases from 1.5×10-10 to 9×10-12 […]-1 when the concentration of gelatin increases from 9% to 40%. […] Accordingly, the probe diffusion is more likely controlled by the concentration of gelatin rather than the cross-link density. On the other hand, the cross-link density may determine the swelling ratio of gelatin, i.e., the concentration of gelatin in aqueous solution. […]

Regarding `O=C1OC2(c3ccc(O)cc3Oc3cc(O)ccc32)c2ccccc21` [fluorescein], the “fluorescence signal remaining in gelatin films” value (after soaking in water for 18 hours, including films not cross-linked) is “still fluorescence signal”.

With `O=C(O)CN(CCN(CC(=O)O)CC(=O)O)CCN(CC(=O)O)CC(=O)O` [DTPA, diethylenetriaminepentaacetic acid], for the setting “estimated for coating thickness 60 μm and diffusion coefficient 9×10-12 m2s-1”, the “time to diffuse out of the gelatin coating” value was “about 67 seconds”.
